# Source: publication PMC5513037, “Examining the influence of specificity ligands and ATP-competitive ligands on the overall effectiveness of bivalent kinase inhibitors” (Proteome Science, 2017)
# pIC50: −log10 of the molar value.
# Key:
# Assay in all cases: KAM-matrix competition in K562 lysate;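 for 0.001 uM KAM: median log10 fold change of treatment over DMSO control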;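 for 0.01 uM KAM: median log10 fold change of treatment over DMSO control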;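 for 0.1 uM KAM: median log10 fold change of treatment over DMSO control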;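 for 1 uM KAM: median log10 fold change of treatment over DMSO control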;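 for 10 uM KAM: median log10 fold change of treatment over DMSO control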
# Type in all cases: binding
# SMG1 = molecular target: T1, SMG1 (Homo sapiens, UniProt Q96Q15);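 for 0.001 uM KAM: median log10 fold change of treatment over DMSO control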;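 for 0.01 uM KAM: median log10 fold change of treatment over DMSO control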;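 for 0.1 uM KAM: median log10 fold change of treatment over DMSO control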;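 for 1 uM KAM: median log10 fold change of treatment over DMSO control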;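 for 10 uM KAM: median log10 fold change of treatment over DMSO control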
# T1 construct: endogenous in cells; host or cells: K562
# Description: (§1) Supplement 12953_2017_125_MOESM1_ESM.zip/MS_Supp Info.xlsx, sheet "KAM" | column: 10 uM KAM; 1 uM KAM; 0.1 uM KAM; 0.01 uM KAM; 0.001 uM KAM; RB50
# MAPK14 = molecular target: T2, MAPK14 (Homo sapiens, UniProt Q16539);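 for 0.001 uM KAM: median log10 fold change of treatment over DMSO control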;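 for 0.01 uM KAM: median log10 fold change of treatment over DMSO control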;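 for 0.1 uM KAM: median log10 fold change of treatment over DMSO control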;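 for 1 uM KAM: median log10 fold change of treatment over DMSO control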;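 for 10 uM KAM: median log10 fold change of treatment over DMSO control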
# T2 construct: endogenous in cells; host or cells: K562
# Description: as §1
# NPR2 = molecular target: T3, NPR2 (Homo sapiens, UniProt P20594);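 for 0.001 uM KAM: median log10 fold change of treatment over DMSO control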;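 for 0.01 uM KAM: median log10 fold change of treatment over DMSO control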;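 for 0.1 uM KAM: median log10 fold change of treatment over DMSO control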;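 for 1 uM KAM: median log10 fold change of treatment over DMSO control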;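 for 10 uM KAM: median log10 fold change of treatment over DMSO control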
# T3 construct: endogenous in cells; host or cells: K562
# T3 sequence (P20594 23-1047): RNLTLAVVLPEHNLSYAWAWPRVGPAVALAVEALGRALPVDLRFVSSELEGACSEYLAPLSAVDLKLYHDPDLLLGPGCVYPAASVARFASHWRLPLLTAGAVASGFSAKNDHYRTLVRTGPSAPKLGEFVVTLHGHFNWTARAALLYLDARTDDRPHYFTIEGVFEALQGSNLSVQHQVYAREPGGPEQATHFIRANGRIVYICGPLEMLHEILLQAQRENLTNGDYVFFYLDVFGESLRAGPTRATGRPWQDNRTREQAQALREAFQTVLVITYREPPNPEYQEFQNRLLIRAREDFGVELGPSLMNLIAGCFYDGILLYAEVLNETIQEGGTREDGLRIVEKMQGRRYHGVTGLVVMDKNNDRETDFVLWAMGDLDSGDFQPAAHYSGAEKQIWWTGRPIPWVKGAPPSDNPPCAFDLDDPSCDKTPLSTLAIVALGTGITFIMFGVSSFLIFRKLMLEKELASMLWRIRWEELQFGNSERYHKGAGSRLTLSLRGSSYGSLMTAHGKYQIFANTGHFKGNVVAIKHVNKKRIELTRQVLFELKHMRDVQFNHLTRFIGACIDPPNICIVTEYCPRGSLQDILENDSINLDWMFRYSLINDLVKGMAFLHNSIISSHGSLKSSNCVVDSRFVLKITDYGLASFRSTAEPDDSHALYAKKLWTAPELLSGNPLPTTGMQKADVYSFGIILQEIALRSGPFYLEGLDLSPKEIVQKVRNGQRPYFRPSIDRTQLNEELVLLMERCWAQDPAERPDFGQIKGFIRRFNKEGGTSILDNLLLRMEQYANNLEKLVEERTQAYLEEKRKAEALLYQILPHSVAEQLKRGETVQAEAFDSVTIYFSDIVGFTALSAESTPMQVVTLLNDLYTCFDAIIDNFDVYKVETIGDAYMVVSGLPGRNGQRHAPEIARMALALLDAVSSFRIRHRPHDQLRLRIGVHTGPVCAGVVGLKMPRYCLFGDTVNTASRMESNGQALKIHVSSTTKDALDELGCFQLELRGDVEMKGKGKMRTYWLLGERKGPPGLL
# Description: as §1
# PRKDC = molecular target: T4, PRKDC (Homo sapiens, UniProt P78527);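 for 0.001 uM KAM: median log10 fold change of treatment over DMSO control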;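 for 0.01 uM KAM: median log10 fold change of treatment over DMSO control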;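 for 0.1 uM KAM: median log10 fold change of treatment over DMSO control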;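 for 1 uM KAM: median log10 fold change of treatment over DMSO control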;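 for 10 uM KAM: median log10 fold change of treatment over DMSO control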
# T4 construct: endogenous in cells; host or cells: K562
# Description: as §1
# AURKB = molecular target: T5, AURKB (Homo sapiens, UniProt Q96GD4)
# T5 construct: endogenous in cells; host or cells: K562
# Description: as §1
# PDPK1 = molecular target: T6, PDPK1 (Homo sapiens, UniProt O15530);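 for 0.001 uM KAM: median log10 fold change of treatment over DMSO control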;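 for 0.01 uM KAM: median log10 fold change of treatment over DMSO control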;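 for 0.1 uM KAM: median log10 fold change of treatment over DMSO control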;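 for 1 uM KAM: median log10 fold change of treatment over DMSO control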;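 for 10 uM KAM: median log10 fold change of treatment over DMSO control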
# T6 construct: endogenous in cells; host or cells: K562
# T6 sequence (O15530 1-556): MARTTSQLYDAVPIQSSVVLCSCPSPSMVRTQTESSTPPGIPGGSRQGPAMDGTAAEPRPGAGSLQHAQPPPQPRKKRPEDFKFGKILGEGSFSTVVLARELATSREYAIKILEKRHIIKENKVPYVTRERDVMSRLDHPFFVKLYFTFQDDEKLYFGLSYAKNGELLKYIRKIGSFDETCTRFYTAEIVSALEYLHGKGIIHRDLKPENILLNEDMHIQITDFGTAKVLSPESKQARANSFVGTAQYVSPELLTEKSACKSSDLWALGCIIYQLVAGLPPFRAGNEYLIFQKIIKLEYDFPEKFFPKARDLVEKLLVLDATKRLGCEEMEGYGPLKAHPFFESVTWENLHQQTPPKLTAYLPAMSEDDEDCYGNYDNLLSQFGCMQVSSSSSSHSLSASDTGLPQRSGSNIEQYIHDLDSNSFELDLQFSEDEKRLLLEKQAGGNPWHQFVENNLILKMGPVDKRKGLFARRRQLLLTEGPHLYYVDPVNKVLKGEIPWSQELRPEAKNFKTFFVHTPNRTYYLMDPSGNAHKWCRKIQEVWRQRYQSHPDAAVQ
# Description: as §1
# PRKCA = molecular target: T7, PRKCA (Homo sapiens, UniProt P17252)
# T7 construct: endogenous in cells; host or cells: K562 lysate
# Description: as §1
# BMP2K = molecular target: T8, BMP2K (Homo sapiens, UniProt Q9NSY1)
# T8 construct: endogenous in cells; host or cells: K562
# Description: as §1
# [1] = KAM 0.001-10 uM, read-out: RB50 (the source's name)
# [2] = read-out: RB50 (the source's name)
# T2 sequence (Q16539 whole entry): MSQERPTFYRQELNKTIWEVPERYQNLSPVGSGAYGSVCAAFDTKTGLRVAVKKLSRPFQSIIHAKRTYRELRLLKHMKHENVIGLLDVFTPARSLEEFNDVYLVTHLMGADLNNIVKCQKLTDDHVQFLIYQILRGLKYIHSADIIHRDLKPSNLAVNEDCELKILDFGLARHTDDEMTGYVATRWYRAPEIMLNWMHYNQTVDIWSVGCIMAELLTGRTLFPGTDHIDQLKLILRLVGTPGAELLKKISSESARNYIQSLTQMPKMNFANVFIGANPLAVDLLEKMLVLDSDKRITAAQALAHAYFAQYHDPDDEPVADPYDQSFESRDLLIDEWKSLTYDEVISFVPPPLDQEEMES
# T1 sequence (Q96Q15 whole entry): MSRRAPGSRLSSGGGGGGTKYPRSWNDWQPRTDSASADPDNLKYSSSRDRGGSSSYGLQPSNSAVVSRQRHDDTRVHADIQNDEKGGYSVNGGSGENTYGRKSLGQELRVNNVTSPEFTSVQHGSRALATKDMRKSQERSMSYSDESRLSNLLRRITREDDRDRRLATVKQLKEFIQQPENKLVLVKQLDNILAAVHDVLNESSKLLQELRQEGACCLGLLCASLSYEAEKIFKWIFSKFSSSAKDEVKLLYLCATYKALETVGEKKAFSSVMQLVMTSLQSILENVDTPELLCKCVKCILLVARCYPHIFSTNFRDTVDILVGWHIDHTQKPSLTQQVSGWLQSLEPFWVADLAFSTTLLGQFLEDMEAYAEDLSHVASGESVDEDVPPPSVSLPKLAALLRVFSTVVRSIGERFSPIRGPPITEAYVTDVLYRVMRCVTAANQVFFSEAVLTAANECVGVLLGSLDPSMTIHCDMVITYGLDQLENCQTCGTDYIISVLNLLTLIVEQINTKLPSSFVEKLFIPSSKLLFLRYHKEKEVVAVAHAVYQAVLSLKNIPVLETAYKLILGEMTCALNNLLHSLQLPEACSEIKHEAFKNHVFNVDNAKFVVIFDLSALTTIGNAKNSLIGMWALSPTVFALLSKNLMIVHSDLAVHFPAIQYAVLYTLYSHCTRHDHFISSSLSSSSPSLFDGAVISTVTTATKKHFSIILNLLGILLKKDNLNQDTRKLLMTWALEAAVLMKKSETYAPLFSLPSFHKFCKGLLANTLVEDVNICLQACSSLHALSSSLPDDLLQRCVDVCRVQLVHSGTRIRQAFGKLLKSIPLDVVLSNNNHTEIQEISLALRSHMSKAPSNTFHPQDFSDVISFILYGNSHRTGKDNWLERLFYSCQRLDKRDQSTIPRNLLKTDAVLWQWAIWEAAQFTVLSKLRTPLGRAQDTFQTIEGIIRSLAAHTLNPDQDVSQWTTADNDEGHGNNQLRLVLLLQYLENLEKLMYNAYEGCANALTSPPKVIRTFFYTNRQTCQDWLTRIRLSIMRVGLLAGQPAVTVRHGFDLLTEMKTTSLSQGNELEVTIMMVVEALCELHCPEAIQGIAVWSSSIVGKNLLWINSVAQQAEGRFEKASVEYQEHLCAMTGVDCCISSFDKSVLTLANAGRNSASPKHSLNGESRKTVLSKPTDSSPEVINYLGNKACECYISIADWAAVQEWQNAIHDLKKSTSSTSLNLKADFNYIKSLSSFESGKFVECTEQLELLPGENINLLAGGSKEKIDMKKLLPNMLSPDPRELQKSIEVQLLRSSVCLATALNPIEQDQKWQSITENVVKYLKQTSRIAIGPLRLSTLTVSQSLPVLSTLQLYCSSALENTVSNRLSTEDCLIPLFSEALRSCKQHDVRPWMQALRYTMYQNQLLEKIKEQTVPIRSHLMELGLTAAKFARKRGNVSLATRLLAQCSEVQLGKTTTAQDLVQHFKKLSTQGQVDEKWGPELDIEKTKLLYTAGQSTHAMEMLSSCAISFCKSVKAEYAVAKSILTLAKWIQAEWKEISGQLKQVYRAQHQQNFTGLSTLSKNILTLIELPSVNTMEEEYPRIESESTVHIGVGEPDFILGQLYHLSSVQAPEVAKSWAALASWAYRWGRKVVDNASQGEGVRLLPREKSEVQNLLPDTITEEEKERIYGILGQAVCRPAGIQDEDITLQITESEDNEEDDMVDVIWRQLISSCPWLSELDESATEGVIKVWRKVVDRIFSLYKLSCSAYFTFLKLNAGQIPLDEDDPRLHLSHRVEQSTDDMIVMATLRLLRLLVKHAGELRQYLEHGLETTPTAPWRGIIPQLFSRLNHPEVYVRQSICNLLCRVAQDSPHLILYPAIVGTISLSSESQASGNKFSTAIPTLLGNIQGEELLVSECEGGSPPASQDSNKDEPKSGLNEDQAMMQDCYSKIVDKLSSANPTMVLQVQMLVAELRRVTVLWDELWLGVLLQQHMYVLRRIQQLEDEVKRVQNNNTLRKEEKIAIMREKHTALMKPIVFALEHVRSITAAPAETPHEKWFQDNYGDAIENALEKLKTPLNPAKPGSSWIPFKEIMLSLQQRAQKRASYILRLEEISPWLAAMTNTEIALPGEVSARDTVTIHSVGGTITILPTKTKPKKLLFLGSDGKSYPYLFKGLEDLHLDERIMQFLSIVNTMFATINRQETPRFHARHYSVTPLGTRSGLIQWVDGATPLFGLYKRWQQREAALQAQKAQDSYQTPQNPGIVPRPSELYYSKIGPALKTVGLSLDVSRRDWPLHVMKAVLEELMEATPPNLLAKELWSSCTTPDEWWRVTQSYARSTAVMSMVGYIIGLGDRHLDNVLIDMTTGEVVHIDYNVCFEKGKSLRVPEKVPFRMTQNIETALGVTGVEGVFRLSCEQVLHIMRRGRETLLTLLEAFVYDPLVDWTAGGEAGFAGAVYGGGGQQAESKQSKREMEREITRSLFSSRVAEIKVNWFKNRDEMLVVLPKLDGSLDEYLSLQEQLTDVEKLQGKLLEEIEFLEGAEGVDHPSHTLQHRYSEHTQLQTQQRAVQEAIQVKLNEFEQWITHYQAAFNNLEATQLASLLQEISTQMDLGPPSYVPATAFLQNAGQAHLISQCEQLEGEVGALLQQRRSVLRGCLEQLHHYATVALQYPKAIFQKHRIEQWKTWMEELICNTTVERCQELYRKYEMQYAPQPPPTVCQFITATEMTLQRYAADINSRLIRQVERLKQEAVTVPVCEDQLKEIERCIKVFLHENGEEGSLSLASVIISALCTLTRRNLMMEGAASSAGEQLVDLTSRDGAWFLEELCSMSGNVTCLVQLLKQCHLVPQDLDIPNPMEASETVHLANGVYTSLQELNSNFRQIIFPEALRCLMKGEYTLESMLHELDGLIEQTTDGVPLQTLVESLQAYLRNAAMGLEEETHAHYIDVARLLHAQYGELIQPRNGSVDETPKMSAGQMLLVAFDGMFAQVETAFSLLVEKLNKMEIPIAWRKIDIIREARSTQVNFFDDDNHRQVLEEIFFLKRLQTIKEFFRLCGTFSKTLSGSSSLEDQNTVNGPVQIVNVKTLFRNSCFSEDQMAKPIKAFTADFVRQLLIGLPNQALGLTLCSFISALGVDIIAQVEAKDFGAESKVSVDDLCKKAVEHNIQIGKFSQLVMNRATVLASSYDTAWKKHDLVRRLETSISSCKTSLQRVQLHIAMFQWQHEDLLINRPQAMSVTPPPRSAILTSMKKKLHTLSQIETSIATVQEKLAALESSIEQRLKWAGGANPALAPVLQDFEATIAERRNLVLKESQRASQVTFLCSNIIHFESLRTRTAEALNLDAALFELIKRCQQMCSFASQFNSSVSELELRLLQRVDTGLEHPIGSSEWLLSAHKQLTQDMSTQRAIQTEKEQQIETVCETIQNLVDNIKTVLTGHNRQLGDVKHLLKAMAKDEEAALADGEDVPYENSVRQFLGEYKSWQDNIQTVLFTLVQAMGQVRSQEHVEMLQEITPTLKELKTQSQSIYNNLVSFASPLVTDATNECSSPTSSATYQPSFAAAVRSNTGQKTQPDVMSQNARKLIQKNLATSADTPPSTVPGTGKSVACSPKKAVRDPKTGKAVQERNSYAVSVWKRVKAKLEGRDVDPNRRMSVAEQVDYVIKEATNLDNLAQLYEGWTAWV
# T5 sequence (Q96GD4 whole entry): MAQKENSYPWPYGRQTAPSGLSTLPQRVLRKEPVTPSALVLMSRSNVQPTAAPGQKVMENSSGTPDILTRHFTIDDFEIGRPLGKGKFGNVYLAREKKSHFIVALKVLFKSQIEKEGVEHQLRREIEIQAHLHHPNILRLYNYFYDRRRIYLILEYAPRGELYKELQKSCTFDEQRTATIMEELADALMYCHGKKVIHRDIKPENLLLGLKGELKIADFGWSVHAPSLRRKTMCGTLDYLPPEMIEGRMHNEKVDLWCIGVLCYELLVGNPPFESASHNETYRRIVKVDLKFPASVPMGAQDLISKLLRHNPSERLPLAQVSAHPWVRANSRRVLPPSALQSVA
smiles,measurement,setting,value
N#CCc1ccc(Nc2nc(NCCCN)cc(Nc3cc(C4CC4)[nH]n3)n2)cc1 [KAM],pIC50,SMG1; [1],< 5.00
same,0.001 uM KAM,SMG1; relative to 0 uM KAM = 0,-0.09325
same,0.01 uM KAM,SMG1; relative to 0 uM KAM = 0,0.027
same,0.1 uM KAM,SMG1; relative to 0 uM KAM = 0,0.0044
same,1 uM KAM,SMG1; relative to 0 uM KAM = 0,0.06163
same,10 uM KAM,SMG1; relative to 0 uM KAM = 0,0.05027
same,pIC50,MAPK14; [1],< 5.00
same,0.001 uM KAM,MAPK14; relative to 0 uM KAM = 0,-0.03046
same,0.01 uM KAM,MAPK14; relative to 0 uM KAM = 0,0.03223
same,0.1 uM KAM,MAPK14; relative to 0 uM KAM = 0,0.1026
same,1 uM KAM,MAPK14; relative to 0 uM KAM = 0,0.08115
same,10 uM KAM,MAPK14; relative to 0 uM KAM = 0,0.173
same,pIC50,NPR2; [1],< 5.00
same,0.001 uM KAM,NPR2; relative to 0 uM KAM = 0,-0.04196
same,0.01 uM KAM,NPR2; relative to 0 uM KAM = 0,-0.03427
same,0.1 uM KAM,NPR2; relative to 0 uM KAM = 0,-0.06644
same,1 uM KAM,NPR2; relative to 0 uM KAM = 0,-0.002813
same,10 uM KAM,NPR2; relative to 0 uM KAM = 0,-0.07947
same,pIC50,PRKDC; [1],< 5.00
same,0.001 uM KAM,PRKDC; relative to 0 uM KAM = 0,-0.0162
same,0.01 uM KAM,PRKDC; relative to 0 uM KAM = 0,-0.0236
same,0.1 uM KAM,PRKDC; relative to 0 uM KAM = 0,-0.1053
same,1 uM KAM,PRKDC; relative to 0 uM KAM = 0,-0.1689
same,10 uM KAM,PRKDC; relative to 0 uM KAM = 0,-0.08641
same,median Log10 fold change,AURKB; 0.001 uM KAM,0.001732
same,median Log10 fold change,AURKB; 0.01 uM KAM,-0.09106
same,median Log10 fold change,AURKB; 0.1 uM KAM,-0.3265
same,median Log10 fold change,AURKB; 1 uM KAM,-0.4096
same,median Log10 fold change,AURKB; 10 uM KAM,-0.3913
same,pIC50,AURKB; [2],6.86
same,pIC50,PDPK1; [1],< 5.00
same,0.001 uM KAM,PDPK1; relative to 0 uM KAM = 0,-0.001927
same,0.01 uM KAM,PDPK1; relative to 0 uM KAM = 0,-0.01199
same,0.1 uM KAM,PDPK1; relative to 0 uM KAM = 0,-0.03413
same,1 uM KAM,PDPK1; relative to 0 uM KAM = 0,-0.1736
same,10 uM KAM,PDPK1; relative to 0 uM KAM = 0,-0.2461
same,median Log10 fold change,PRKCA; 0.001 uM KAM,-0.02328
same,median Log10 fold change,PRKCA; 0.01 uM KAM,-0.03535
same,median Log10 fold change,PRKCA; 0.1 uM KAM,-0.1377
same,median Log10 fold change,PRKCA; 1 uM KAM,-0.1636
same,median Log10 fold change,PRKCA; 10 uM KAM,-0.4501
same,pIC50,PRKCA; [2],5.50
same,median Log10 fold change,BMP2K; 0.001 uM KAM,-0.005905
same,median Log10 fold change,BMP2K; 0.01 uM KAM,-0.3094
same,median Log10 fold change,BMP2K; 0.1 uM KAM,-0.4691
same,median Log10 fold change,BMP2K; 1 uM KAM,-0.5686
same,median Log10 fold change,BMP2K; 10 uM KAM,-0.6945
same,pIC50,BMP2K; [2],7.80
